Test results reported in ChEMBL document CHEMBL5532678, “Comprehensive Insights that Targeting PIM for Cancer Therapy: Prospects and Obstacles” (J Med Chem, 2024).
Values belong to the compound of their own block, whether it stands above or below them.

Tests used:
[1] = target: T1, Serine/threonine-protein kinase pim-1 (Homo sapiens, UniProt P11309); assay: Inhibition of human full length-His6 tagged PIM1 (1 to 312 residues) expressed in Escherichia coli BL21 (DE3) using RSRHSSYPAGT as peptide substrate incubated for 10 mins in presence of [gamma-32P]ATP by radiometric scintillation assay
[2] = target: T2, Serine/threonine-protein kinase pim-2 (Homo sapiens, UniProt Q9P1W9); assay: Inhibition of human full length-His6 tagged PIM2 (1 to 311 residues) expressed in Escherichia coli BL21 (DE3) assessed as inhibition constant using RSRHSSYPAGT as peptide substrate incubated for 10 mins in presence of [gamma-32P]ATP by radiometric scintillation assay
[3] = target: T2, Serine/threonine-protein kinase pim-2; assay: Inhibition of N-terminal GST-tagged full length human PIM2 (1 to 311 residues) expressed in baculovirus expression system using S6K2 peptide as substrate at 1 uM in presence of ATP by Mobility shift assay
[4] = target: Prostaglandin G/H synthase 1 (Homo sapiens, UniProt P23219); assay: Inhibition of COX1 (unknown origin) fluorescence based analysis
[5] = target: T3, Polyunsaturated fatty acid 5-lipoxygenase (Homo sapiens, UniProt P09917); assay: Inhibition of 5-LOX in human PMNL cells; format: cell-based
T3 sequence (P09917 whole entry): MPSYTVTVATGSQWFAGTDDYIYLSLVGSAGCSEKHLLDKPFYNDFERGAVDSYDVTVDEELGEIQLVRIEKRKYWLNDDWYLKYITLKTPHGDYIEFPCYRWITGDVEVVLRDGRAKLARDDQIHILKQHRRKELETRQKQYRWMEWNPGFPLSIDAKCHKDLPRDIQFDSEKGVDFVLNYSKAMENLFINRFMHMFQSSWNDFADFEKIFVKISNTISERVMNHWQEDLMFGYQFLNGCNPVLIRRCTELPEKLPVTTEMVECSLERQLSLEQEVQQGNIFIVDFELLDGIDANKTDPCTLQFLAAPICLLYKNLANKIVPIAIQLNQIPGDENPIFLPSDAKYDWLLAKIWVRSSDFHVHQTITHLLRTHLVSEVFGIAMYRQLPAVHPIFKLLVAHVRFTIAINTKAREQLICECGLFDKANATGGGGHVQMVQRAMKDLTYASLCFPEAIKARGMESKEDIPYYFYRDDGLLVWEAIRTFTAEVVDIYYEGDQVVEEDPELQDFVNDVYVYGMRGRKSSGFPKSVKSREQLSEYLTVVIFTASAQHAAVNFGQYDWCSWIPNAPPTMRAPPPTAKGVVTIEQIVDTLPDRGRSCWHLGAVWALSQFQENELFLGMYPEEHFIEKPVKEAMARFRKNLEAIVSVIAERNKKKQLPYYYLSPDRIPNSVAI

[6] = target: T4, Prostaglandin G/H synthase 2 (Homo sapiens, UniProt P35354); assay: Inhibition of COX2 (unknown origin) fluorescence based analysis
T4 sequence (P35354 whole entry): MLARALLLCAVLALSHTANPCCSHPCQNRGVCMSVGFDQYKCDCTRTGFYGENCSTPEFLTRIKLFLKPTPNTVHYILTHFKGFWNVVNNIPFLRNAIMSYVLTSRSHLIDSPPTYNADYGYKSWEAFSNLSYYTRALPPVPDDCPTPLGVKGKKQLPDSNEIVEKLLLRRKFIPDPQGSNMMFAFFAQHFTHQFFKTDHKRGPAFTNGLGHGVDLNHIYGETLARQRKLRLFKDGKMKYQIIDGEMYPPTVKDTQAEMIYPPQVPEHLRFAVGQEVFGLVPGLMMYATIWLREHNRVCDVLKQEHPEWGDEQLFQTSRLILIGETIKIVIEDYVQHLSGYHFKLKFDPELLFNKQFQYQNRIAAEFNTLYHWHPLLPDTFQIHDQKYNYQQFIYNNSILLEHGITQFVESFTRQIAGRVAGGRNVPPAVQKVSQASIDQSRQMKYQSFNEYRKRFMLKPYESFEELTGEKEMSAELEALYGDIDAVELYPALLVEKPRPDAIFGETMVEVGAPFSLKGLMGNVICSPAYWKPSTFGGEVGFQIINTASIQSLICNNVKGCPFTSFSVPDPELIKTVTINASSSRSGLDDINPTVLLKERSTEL

[7] = target: T1, Serine/threonine-protein kinase pim-1; assay: Inhibition of human recombinant PIM1
[8] = target: T5, Serine/threonine-protein kinase pim-3 (Homo sapiens, UniProt Q86V86); assay: Inhibition of N-terminal GST-tagged full length human PIM3 (1 to 326 residues) expressed in baculovirus expression system using S6K2 peptide as substrate at 1 uM in presence of ATP by Mobility shift assay
[9] = target: T5, Serine/threonine-protein kinase pim-3; assay: Inhibition of PIM3 (unknown origin) by FRET based Z-LYTE kinase assay
[10] = target: T2, Serine/threonine-protein kinase pim-2; assay: Inhibition of PIM2 (unknown origin) by FRET based Z-LYTE kinase assay
[11] = target: T1, Serine/threonine-protein kinase pim-1; assay: Inhibition of PIM1 (unknown origin) by FRET based Z-LYTE kinase assay
[12] = tested on: MCF7; assay: Cytotoxicity against human MCF7 cells assessed as reduction in cell viability by MTT assay; format: functional, cell-based
[13] = target: T1, Serine/threonine-protein kinase pim-1; assay: Inhibition of human PIM1 by discoverX kinome scan assay
[14] = Inhibition of PI3K (unknown origin); parameters: species or system Homo sapiens
[15] = target: Serine/threonine-protein kinase mTOR (Homo sapiens, UniProt P42345); assay: Inhibition of mTOR (unknown origin)
[16] = tested on: HCT-116; assay: Antiproliferative activity against human HCT-116 cells assessed as inhibition of cell growth incubated for 24 hrs by MTT assay; format: functional, cell-based; settings: HCT-116, 24 h
[17] = tested on: MCF7; assay: Antiproliferative activity against human MCF7 cells assessed as reduction in cell growth incubated for 48 hrs by MTT assay; format: functional, cell-based; settings: MCF7, 48 h
[18] = target: T1, Serine/threonine-protein kinase pim-1; assay: Inhibition of human PIM1 using KKRNRTLTK as substrate in presence of [gamma-33P]-ATP by hotspot kinase assay
[19] = tested on: HepG2; assay: Antiproliferative activity against human HepG2 cells assessed as inhibition of cell growth incubated for 72 hrs by MTT assay; format: functional, cell-based; settings: HepG2, 72 h
[20] = tested on: PC-3; assay: Anticancer activity against human PC-3 cells assessed as inhibition of cell growth incubated for 24 hrs by MTT assay; format: functional, cell-based; settings: PC-3, 24 h
[21] = target: Dual specificity protein kinase CLK1 (Homo sapiens, UniProt P49759); assay: Inhibition of CLK1 (unknown origin) using GRSRSRSRSRSRSRS as substrate incubated for 15 mins in presence of ATP by gamma32P-ATP based analysis

SMILES: COc1ccc(N2C(=O)C(CC(=O)O)S/C2=N/N=C/c2c(C)ccc(C(C)C)c2O)cc1 (stereo unspecified)
IC50 [3]: 976 nM
IC50 [4]: 14 µM
IC50 [5]: 2810 nM
IC50 [6]: 0.037 µM
IC50 [7]: 7.21 µM

SMILES: COc1ccc(/C=C/C(=O)CC2(O)C(=O)Nc3cc(Br)ccc32)cc1 (stereo unspecified)
IC50 [1]: 1620 nM
IC50 [2]: 2460 nM
IC50 [8]: 1740 nM

SMILES: CN1CCN(c2ccc(-n3cnc4ccc(/C=C5\SC(=S)NC5=O)cc43)cc2)CC1
IC50 [9]: 6.4 µM
IC50 [10]: 16 µM
IC50 [11]: 16 µM

SMILES: COc1ccc(N2CCN(C(=O)c3sc4nc(C)c(Br)c(C)c4c3N)CC2)cc1
IC50 [12]: 107 µM
IC50 [13]: 12.7 µM

SMILES: Cc1nc2sc(C(=O)Nc3ccc(F)c(Cl)c3)c(N)c2c(C)c1Br
IC50 [12]: 75.9 µM
IC50 [13]: 35.7 µM

SMILES: N#Cc1c(-c2ccccc2)cc(-c2ccccc2)nc1OCC(=O)NO
IC50 [18]: 427 nM

SMILES: CCOc1cc(/C=C2\SC(=S)NC2=O)ccc1O
IC50 [9]: 0.17 µM
IC50 [10]: 0.31 µM
IC50 [11]: 0.42 µM

SMILES: COc1ccc(/C=C/C(/C=C2/C(=O)Nc3cc(Br)ccc32)=N/O)cc1
IC50 [1]: 470 nM
IC50 [2]: 220 nM
IC50 [8]: 360 nM

SMILES: N#Cc1c(-c2ccco2)cc(-c2ccc(N3C(=O)c4ccccc4C3=O)cc2)nc1N
IC50 [19]: 31.1 µM
IC50 [20]: 33.5 µM
IC50 [17]: 19.7 µM
IC50 [13]: 0.63 µM

SMILES: NC(=O)c1c(O)cc(O)c2c1oc1cc(O)ccc12
IC50 [21]: 26 nM

SMILES: Cc1ccc(C(C)C)c(O)c1/C=N/N=C1/SC(CC(=O)O)C(=O)N1c1cccc2ccccc12 (stereo unspecified)
IC50 [3]: 1740 nM
IC50 [4]: 0.2 µM
IC50 [5]: 3160 nM
IC50 [6]: 9.11 µM
IC50 [7]: 4.09 µM

SMILES: CN1CCN(C[C@@H](NC(=O)CC2CNC(=O)c3cc(-c4cccc(Cl)c4)cn32)C2CCCCC2)CC1 (stereo partly specified)
IC50 [1]: 1.5 nM

Now from value to compound:

IC50 [1]: 7 nM
IC50 [2]: 25000 nM
SMILES: Cc1cccc(-c2c(-c3cccc(OC(F)(F)F)c3)cc3n2[C@@H](CCN)CNC3=O)c1

IC50 [1]: 370 nM
IC50 [2]: 410 nM
IC50 [8]: 300 nM
SMILES: COc1ccc(/C=C/C(=O)/C=C2/C(=O)Nc3cc(Br)ccc32)cc1

IC50 [14]: 0.13 nM
IC50 [15]: 74.5 µM
SMILES: COc1ncc2cc1NS(=O)(=O)c1ccc(F)c(c1)C(=O)NCC1=CC=C(S1)c1ncnc3c1SC2=C3C

IC50 [16]: 360 nM
IC50 [17]: 0.46 µM
SMILES: COc1cc(C2NC(=O)c3sc4nc(C)c(Br)c(C)c4c3N2)ccc1O (stereo unspecified)

IC50 [19]: 14.6 µM
IC50 [20]: 27.6 µM
IC50 [17]: 13.4 µM
IC50 [13]: 9.76 µM
SMILES: N#Cc1c(-c2ccccc2O)cc(-c2ccc(N3C(=O)c4ccccc4C3=O)cc2)nc1N
